In PubChem BioAssay (NCI):
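All cell lines were grown in 96-well plates and treated with compound for 48 hours. GI50 marks 50% less growth. At the TGI there is no net growth.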

Tests used:
Test in all cases: inhibition of tumour cell growth, NCI panel, 48 h
[1] = test system: OVCAR-8 ovarian
[2] = test system: U251 CNS
[3] = test system: SW-620 colon
[4] = test system: HCT-15 colon
[5] = test system: IGROV1 ovarian
[6] = test system: KM12 colon
[7] = test system: M14 melanoma
[8] = test system: EKVX NSCLC
[9] = test system: SNB-75 CNS
[10] = test system: MALME-3M melanoma

C[N+](C)(C)CCN[N+]1(C)CCCc2ccccc21 (centres undefined)
TGI [1]: > 100 µM
TGI [2]: > 100 µM
TGI [3]: > 100 µM
TGI [4]: > 100 µM
TGI [5]: > 100 µM
TGI [6]: > 100 µM
TGI [7]: > 100 µM
TGI [8]: > 100 µM
TGI [9]: > 100 µM
TGI [10]: 50.3 µM

CC1(O)COCCCCOc2c(CN)cccc2NC(=O)c2nc(cnc2N)-c2ccc(cc2)S(=O)(=O)C(C)(C)C1 (centres undefined)
GI50 [1]: 1.31 µM
TGI [1]: 3.63 µM
GI50 [2]: 0.715 µM
TGI [2]: 2.22 µM
GI50 [3]: 0.42 µM
TGI [3]: 1.98 µM
GI50 [4]: 0.227 µM
TGI [4]: 1.82 µM
GI50 [5]: 1.28 µM
TGI [5]: 2.7 µM
GI50 [6]: 1.43 µM
TGI [6]: 2.93 µM
GI50 [8]: 1.68 µM
TGI [8]: 3.38 µM
GI50 [9]: 0.17 µM
TGI [9]: 1.94 µM
GI50 [10]: 1.77 µM
TGI [10]: 3.43 µM

COC(=O)NC1C(C)OC(OC2C/C=C(/C)C3C=CC4C(OC5CC(OC6CC(OC7CC(O)C(O)C(C)O7)C(OC7CC(O)C(OC)C(C)O7)C(C)O6)C(O)C(C)O5)C(C)CC(C)C4C3(C)/C(O)=C3\C(=O)OC4(CC(C)C(CO)=CC4/C=C\2C)C3=O)CC1(C)[N+](=O)[O-] (centres undefined)
TGI [1]: 33.4 µM
TGI [2]: 44.9 µM
TGI [3]: > 100 µM
TGI [4]: 36.4 µM
TGI [5]: 34 µM
TGI [6]: 20.5 µM
TGI [7]: 77 µM
TGI [8]: 42.8 µM
TGI [9]: 16.7 µM

c1ccc([P+](c2ccccc2)(c2ccccc2)c2ccc(-c3ccc([P+](c4ccccc4)(c4ccccc4)c4ccccc4)cc3)cc2)cc1
TGI [1]: 85.5 µM
TGI [2]: > 100 µM
TGI [3]: > 100 µM
TGI [4]: > 100 µM
TGI [5]: 13.4 µM
TGI [6]: > 100 µM
TGI [7]: > 100 µM
TGI [8]: > 100 µM
TGI [10]: 89.9 µM

CCc1ccc2c(c1)C(=O)c1c-2n(CCCN)c(=O)c2cc([N+](=O)[O-])ccc12
GI50 [1]: 1.02 µM
TGI [1]: 2.35 µM
GI50 [2]: 1.07 µM
TGI [2]: 2.29 µM
GI50 [5]: 1.22 µM
TGI [5]: 2.56 µM
GI50 [6]: 1.02 µM
TGI [6]: 2.43 µM
GI50 [7]: 1.56 µM
TGI [7]: 3.08 µM
GI50 [8]: 1.67 µM
TGI [8]: 3.11 µM
GI50 [10]: 1.42 µM
TGI [10]: 2.8 µM

CCCCCCCN(CCCCCCC)CC(O)c1cc2ccccc2c2cc(Br)ccc12 (centres undefined)
TGI [1]: > 100 µM
TGI [2]: 45.6 µM
TGI [3]: > 100 µM
TGI [4]: > 100 µM
TGI [5]: > 100 µM
TGI [7]: 76.7 µM
TGI [8]: > 100 µM
TGI [9]: 93.9 µM
TGI [10]: 40.7 µM

CS(=O)(=O)OCCN(CCOS(C)(=O)=O)c1ccc(/C=N/Nc2ncnc3nc[nH]c23)cc1
TGI [1]: 57.7 µM
TGI [2]: 53.5 µM
TGI [3]: 66.8 µM
TGI [4]: > 100 µM
TGI [5]: 71.6 µM
TGI [6]: 34.8 µM
TGI [7]: 34.1 µM
TGI [8]: 78.4 µM
TGI [9]: 33.6 µM
TGI [10]: 55.2 µM
